From ChEMBL document CHEMBL1687839, “ISAba825, a functional insertion sequence modulating genomic plasticity and bla(OXA-58) expression in Acinetobacter baumannii” (2011)
In brackets after ≈: the same amount, converted by molar mass.

What was measured:
Assay type in all cases: functional
Acinetobacter baumannii [1] = test: Antibacterial activity against Acinetobacter baumannii ATCC 17978 harboring plasmid directed expression of beta-lactamase OXA-58 under an ISAba825-ISAba3 hybrid and ISAba3-derived promoter sequence
Acinetobacter baumannii [2] = test: Ratio of MIC for Acinetobacter baumannii ATCC 17978 harboring plasmid pWHP825 to MIC for Acinetobacter baumannii ATCC 17978 harboring plasmid 1266
Acinetobacter baumannii [3] = test: Antibacterial activity against Acinetobacter baumannii ATCC 17978 harboring plasmid 1266
Acinetobacter baumannii [4] = test: Antibacterial activity against Acinetobacter baumannii ATCC 17978 harboring pAB880
Acinetobacter baumannii [5] = test: Antibacterial activity against Acinetobacter baumannii ATCC 17978
Acinetobacter baumannii [6] = test: Antibacterial activity against Acinetobacter baumannii ATCC 17978 harboring plasmid directed expression of beta-lactamase OXA-58 under an ISAba3 promoter
Acinetobacter baumannii [7] = test: Antibacterial activity against Acinetobacter baumannii Ab880 overexpressing beta-lactamase OXA-58 under the control of ISAba825 insertion sequence

SMILES | MIC (Acinetobacter baumannii [1]) | Ratio (Acinetobacter baumannii [2]) | MIC (Acinetobacter baumannii [3]) | MIC (Acinetobacter baumannii [4]) | MIC (Acinetobacter baumannii [5]) | MIC (Acinetobacter baumannii [6]) | MIC (Acinetobacter baumannii [7])
C[C@@H](O)[C@H]1C(=O)N2C(C(=O)O)=C(SCCNC=N)C[C@H]12 [IMIPENEM ANHYDROUS] | 32 µg/mL (≈ 107 µM) | 128 | 0.25 µg/mL (≈ 0.835 µM) | 16 µg/mL (≈ 53.4 µM) | 0.25 µg/mL (≈ 0.835 µM) | 0.5 µg/mL (≈ 1.67 µM) | 16 µg/mL (≈ 53.4 µM)
C[C@@H](O)[C@H]1C(=O)N2C(C(=O)O)=C(S[C@@H]3CN[C@H](C(=O)N(C)C)C3)[C@H](C)[C@H]12 [MEROPENEM] | 16 µg/mL (≈ 41.7 µM) | 64 | 0.25 µg/mL (≈ 0.652 µM) | 8 µg/mL (≈ 20.9 µM) | 0.25 µg/mL (≈ 0.652 µM) | 0.5 µg/mL (≈ 1.3 µM) | 16 µg/mL (≈ 41.7 µM)
